Common to all, as to assay type: cell-based
One assay addresses BaF3_HER2WT cells (Homo sapiens, UniProt P04626). As to the kind of experiment: Cell growth inhibition assay (CellTiterGlo), BaF3_HER2WT. Particulars: 3-day treatment, CellTiterGlo, read-out: Cell growth inhibition activity, HER2 WT. (In ATP-based viability assays light output follows the ATP content of the culture.)
Another assay deals with BaF3_HER2YVMA cells (Homo sapiens, UniProt P04626, DUP772-775, cells depend on it). As to the kind of experiment: Cell growth inhibition assay (CellTiterGlo), BaF3_HER2YVMA. Particulars: 3-day treatment, CellTiterGlo, read-out: Cell growth inhibition activity, HER2 - YVMA.
BaF3_HER2YVMA cells, sequence (P04626 with tags, fused parts or gaps DUP772-775): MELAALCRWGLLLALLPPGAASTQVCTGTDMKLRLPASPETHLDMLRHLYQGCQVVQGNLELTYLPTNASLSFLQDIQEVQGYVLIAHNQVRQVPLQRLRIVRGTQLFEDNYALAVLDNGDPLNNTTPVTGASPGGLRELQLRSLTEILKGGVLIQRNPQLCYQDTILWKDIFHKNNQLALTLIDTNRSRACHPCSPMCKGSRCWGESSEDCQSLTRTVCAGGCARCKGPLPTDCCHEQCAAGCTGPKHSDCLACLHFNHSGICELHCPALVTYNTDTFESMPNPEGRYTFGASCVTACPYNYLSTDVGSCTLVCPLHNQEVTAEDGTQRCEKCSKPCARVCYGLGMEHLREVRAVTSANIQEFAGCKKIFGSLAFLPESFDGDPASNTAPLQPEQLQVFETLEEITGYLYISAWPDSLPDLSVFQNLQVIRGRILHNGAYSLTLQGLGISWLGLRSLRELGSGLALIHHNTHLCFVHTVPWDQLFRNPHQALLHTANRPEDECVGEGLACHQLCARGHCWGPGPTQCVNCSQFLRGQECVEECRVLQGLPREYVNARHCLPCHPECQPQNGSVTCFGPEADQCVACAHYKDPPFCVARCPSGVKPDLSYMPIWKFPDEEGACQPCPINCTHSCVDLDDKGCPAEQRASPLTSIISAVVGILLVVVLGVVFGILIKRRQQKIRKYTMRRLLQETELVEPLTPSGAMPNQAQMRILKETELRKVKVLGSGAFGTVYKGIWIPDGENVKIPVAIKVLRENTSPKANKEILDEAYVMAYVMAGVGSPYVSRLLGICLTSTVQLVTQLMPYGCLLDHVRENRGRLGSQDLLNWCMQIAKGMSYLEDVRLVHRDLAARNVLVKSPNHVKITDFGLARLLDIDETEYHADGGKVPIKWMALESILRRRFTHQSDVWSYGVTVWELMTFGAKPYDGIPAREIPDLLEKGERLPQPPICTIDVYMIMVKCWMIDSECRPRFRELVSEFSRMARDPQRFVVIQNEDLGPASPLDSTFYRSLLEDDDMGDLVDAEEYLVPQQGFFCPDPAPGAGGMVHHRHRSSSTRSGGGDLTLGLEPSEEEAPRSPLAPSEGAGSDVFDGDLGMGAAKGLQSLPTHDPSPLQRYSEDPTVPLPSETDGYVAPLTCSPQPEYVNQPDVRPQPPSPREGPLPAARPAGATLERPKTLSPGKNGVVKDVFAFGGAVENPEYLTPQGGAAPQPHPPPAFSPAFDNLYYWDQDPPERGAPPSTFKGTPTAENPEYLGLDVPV
The target in the next assay is BaF3_EGFRWT cells (Homo sapiens, UniProt P00533). As to the kind of experiment: Cell growth inhibition assay (CellTiterGlo), BaF3_EGFRWT. Conditions: 3-day treatment, CellTiterGlo, read-out: Cell growth inhibition activity, EGFR WT.
BaF3_EGFRWT cells, sequence (P00533 whole entry, change not shown): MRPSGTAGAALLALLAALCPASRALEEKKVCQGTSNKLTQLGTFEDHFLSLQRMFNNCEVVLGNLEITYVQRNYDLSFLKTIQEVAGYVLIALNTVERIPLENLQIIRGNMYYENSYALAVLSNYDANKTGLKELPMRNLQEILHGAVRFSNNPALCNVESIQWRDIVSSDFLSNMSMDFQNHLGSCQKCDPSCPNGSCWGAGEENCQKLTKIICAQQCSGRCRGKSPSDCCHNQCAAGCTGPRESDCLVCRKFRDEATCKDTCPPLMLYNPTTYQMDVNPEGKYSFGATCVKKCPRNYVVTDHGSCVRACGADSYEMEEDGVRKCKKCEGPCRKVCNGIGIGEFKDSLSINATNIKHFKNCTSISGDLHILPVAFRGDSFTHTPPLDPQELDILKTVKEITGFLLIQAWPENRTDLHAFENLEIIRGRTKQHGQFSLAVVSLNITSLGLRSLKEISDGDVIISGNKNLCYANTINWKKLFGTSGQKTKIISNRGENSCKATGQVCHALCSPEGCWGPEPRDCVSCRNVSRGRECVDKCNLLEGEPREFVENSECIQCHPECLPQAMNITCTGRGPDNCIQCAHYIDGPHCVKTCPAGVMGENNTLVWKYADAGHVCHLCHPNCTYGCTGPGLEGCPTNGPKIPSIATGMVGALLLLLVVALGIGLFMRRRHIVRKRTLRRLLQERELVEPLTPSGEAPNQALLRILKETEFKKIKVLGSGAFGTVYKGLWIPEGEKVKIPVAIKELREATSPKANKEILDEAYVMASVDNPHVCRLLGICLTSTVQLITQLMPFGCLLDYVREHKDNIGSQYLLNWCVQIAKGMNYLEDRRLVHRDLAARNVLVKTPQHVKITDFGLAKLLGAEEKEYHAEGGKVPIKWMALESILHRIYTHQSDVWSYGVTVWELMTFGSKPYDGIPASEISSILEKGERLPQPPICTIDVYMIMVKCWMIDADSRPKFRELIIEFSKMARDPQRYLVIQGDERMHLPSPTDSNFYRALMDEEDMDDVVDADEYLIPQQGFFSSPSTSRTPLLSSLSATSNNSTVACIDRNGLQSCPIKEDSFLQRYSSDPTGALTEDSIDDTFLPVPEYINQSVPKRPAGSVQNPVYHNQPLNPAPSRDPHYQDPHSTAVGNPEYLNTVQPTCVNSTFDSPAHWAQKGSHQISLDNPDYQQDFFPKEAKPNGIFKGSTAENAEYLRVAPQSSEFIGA

BaF3_HER2WT cells, sequence (P04626 whole entry, change not shown): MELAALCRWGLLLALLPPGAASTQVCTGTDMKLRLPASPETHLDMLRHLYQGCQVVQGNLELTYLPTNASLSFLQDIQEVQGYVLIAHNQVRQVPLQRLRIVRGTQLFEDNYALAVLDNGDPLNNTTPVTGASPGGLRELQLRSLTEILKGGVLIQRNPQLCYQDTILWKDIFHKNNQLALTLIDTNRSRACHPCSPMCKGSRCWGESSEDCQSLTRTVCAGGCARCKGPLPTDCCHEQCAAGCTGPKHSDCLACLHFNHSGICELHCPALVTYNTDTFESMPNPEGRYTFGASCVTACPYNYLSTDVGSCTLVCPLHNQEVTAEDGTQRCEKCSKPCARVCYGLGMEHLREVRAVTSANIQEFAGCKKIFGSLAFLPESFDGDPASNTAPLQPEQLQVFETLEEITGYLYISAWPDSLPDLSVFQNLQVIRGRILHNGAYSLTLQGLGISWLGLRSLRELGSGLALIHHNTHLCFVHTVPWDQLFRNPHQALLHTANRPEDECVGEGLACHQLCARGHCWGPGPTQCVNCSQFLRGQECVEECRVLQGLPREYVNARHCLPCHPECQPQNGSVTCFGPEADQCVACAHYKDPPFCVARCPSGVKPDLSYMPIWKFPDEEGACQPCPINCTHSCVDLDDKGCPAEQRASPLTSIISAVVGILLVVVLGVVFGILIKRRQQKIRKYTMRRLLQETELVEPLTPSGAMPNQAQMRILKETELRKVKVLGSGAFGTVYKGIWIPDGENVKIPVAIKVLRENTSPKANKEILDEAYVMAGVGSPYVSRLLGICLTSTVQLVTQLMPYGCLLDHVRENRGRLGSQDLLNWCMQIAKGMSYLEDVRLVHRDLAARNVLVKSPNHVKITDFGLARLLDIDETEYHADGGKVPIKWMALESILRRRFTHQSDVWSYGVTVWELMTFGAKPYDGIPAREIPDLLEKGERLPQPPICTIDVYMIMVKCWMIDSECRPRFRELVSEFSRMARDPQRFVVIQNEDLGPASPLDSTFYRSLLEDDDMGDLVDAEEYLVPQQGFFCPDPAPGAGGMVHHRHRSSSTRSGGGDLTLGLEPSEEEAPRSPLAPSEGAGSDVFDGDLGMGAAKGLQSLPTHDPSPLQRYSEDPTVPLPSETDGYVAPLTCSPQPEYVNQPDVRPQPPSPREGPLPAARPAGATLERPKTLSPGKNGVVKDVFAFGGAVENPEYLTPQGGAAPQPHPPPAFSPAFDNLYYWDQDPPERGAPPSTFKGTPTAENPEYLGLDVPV

As for `C=CC(=O)N1CCN(c2ccn3ncnc(Nc4ccc(Oc5ccc6c(c5)ncn6C)c(C)c4)c23)CC1` [Example 121, 1-(4-(4-((3-methyl-4-((1-methyl-1H-benzo[d]imidazol-5-yl)oxy)phenyl)amino)pyrrolo[2,1-f][1,2,4]triazin-5-yl)piperazin-1-yl)prop-2-en-1-one], the GI50 on BaF3_HER2WT cells was under 200 nM; at BaF3_HER2YVMA cells, under 200 nM; on BaF3_EGFRWT cells, 500 to 1500 nM.

Regarding `Cc1cc(Nc2ncnn3ccc(C4CCN(C(=O)/C=C/CN5CCC6(COC6)C5)CC4)c23)ccc1Oc1ccc2c(c1)ncn2C` [Example 129, (E)-1-(4-(4-((3-methyl-4-((1-methyl-1H-benzo[d]imidazol-5-yl)-oxy)phenyl)amino)-pyrrolo[2,1-f][1,2,4]triazin-5-yl)piperidin-1-yl)-4-(2-oxa-6-azaspiro[3.4]octan-6-yl)but-2-en-1-one], the GI50 at BaF3_HER2WT cells is under 200 nM; at BaF3_HER2YVMA cells it was under 200 nM; on BaF3_EGFRWT cells, 1500 to 5000 nM.

Consider `Cc1cc(Nc2ncnn3ccc(C4CCN(C(=O)/C=C/CN(C)C)CC4)c23)ccc1Oc1ccc2c(c1)ncn2C` [Example 133, (E)-4-(dimethylamino)-1-(4-(4-((3-methyl-4-((1-methyl-1H-benzo[d]234midazole-5-yl)oxy)phenyl)amino)pyrrolo[2,1-f][1,2,4]triazin-5-yl)piperidin-1-yl)but-2-en-1-one], for which the values for the GI50 on BaF3_HER2WT cells, on BaF3_HER2YVMA cells and on BaF3_EGFRWT cells were under 200 nM, under 200 nM and 1500 to 5000 nM, respectively.

Consider `Cc1cc(Nc2ncnn3ccc(C4CN(C(=O)/C=C/CN(C)C)C4)c23)ccc1Oc1ccn2cnnc2c1` [Example 134, (E)-1-(3-(4-((4-([1,2,4]triazolo[4,3-a]pyridin-7-yloxy)-3-methylphenyl)amino)pyrrolo[2,1-f][1,2,4]triazin-5-yl)azetidin-1-yl)-4-(dimethylamino)but-2-en-1-one], for which the values for the GI50 on BaF3_HER2WT cells, at BaF3_HER2YVMA cells and on BaF3_EGFRWT cells were 200 to 500 nM, 1500 to 5000 nM and 1500 to 5000 nM, respectively.

With `C=CC(=O)N1C[C@H]2C[C@@H]1C[C@@H]2c1ccn2ncnc(Nc3ccc(Oc4ccn5ncnc5c4)c(C)c3)c12` [Example 141, 1-[(1S,4S,5S)-5-{4-[(3-methyl-4-{[1,2,4]triazolo[1,5-a]pyridin-7-yloxy}phenyl)amino]pyrrolo[2,1-f][1,2,4]triazin-5-yl}-2-azabicyclo[2.2.1]heptan-2-yl]prop-2-en-1-one], the GI50 is 200 to 500 nM on BaF3_HER2WT cells, 500 to 1500 nM at BaF3_HER2YVMA cells and 1500 to 5000 nM on BaF3_EGFRWT cells.

On to `Cc1cc(Nc2ncnn3ccc(C4CCN(C(=O)/C=C/C(=O)O)CC4)c23)ccc1Oc1ccn2ncnc2c1` [Example 142, (E)-4-(4-(4-((4-([1,2,4]triazolo[1,5-a]pyridin-7-yloxy)-3-methylphenyl)amino)pyrrolo[2,1-f][1,2,4]triazin-5-yl)piperidin-1-yl)-4-oxobut-2-enoic acid], for which the GI50 on BaF3_HER2WT cells, on BaF3_HER2YVMA cells and on BaF3_EGFRWT cells was 1500 to 5000 nM in each case.

`Cc1cc(Nc2ncnn3ccc(C4CCN(C(=O)/C=C/CN)CC4)c23)ccc1Oc1ccn2ncnc2c1` [Example 150, (E)-1-(4-(4-((4-([1,2,4]triazolo[1,5-a]pyridin-7-yloxy)-3-methylphenyl)amino)pyrrolo[2,1-f][1,2,4]triazin-5-yl)piperidin-1-yl)-4-aminobut-2-en-1-one]: the values for the GI50 at BaF3_HER2WT cells, on BaF3_HER2YVMA cells and on BaF3_EGFRWT cells were 500 to 1500 nM, 1500 to 5000 nM and 1500 to 5000 nM, respectively.

On to `CNC/C=C/C(=O)N1CC(c2ccn3ncnc(Nc4ccc(Oc5ccn6ncnc6c5)c(C)c4)c23)C1` [Example 151, (E)-1-(3-(4-((4-([1,2,4]triazolo[1,5-a]pyridin-7-yloxy)-3-methylphenyl)amino)pyrrolo[2,1-f][1,2,4]triazin-5-yl)azetidin-1-yl)-4-(methylamino)but-2-en-1-one], for which the GI50 on BaF3_HER2WT cells is under 200 nM; on BaF3_HER2YVMA cells it was under 200 nM; at BaF3_EGFRWT cells, 1500 to 5000 nM.

Consider `Cc1cc(Nc2ncnn3cc(F)c(C4CCN(C(=O)/C=C/CN(C)C)CC4)c23)ccc1Oc1ccn2ncnc2c1` [Example 152, (E)-1-(4-(4-((4-([1,2,4]triazolo[1,5-a]pyridin-7-yloxy)-3-methylphenyl)amino)-6-fluoropyrrolo[2,1-f][1,2,4]triazin-5-yl)piperidin-1-yl)-4-(dimethylamino)but-2-en-1-one], for which the GI50 was under 200 nM on BaF3_HER2WT cells, under 200 nM at BaF3_HER2YVMA cells and 1500 to 5000 nM at BaF3_EGFRWT cells.

In the case of `CNC/C=C/C(=O)N1CC(c2ccn3ncnc(Nc4ccc(Oc5ccc6c(c5)ncn6C)c(C)c4)c23)C1` [Example 153, (E)-1-(3-(4-((3-methyl-4-((1-methyl-1H-benzo[d]imidazol-5-yl)oxy)phenyl)amino)pyrrolo[2,1-f][1,2,4]triazin-5-yl)azetidin-1-yl)-4-(methylamino)but-2-en-1-one], the GI50 at BaF3_HER2WT cells, at BaF3_HER2YVMA cells and on BaF3_EGFRWT cells was 1500 to 5000 nM throughout.

Take `Cc1cc(Nc2ncnn3ccc(C4CCN(C(=O)/C=C/CO)CC4)c23)ccc1Oc1ccn2ncnc2c1` [Example 154, (E)-1-(4-(4-((4-([1,2,4]triazolo[1,5-a]pyridin-7-yloxy)-3-methylphenyl)amino)pyrrolo[2,1-f][1,2,4]triazin-5-yl)piperidin-1-yl)-4-hydroxybut-2-en-1-one]: the GI50 at BaF3_HER2WT cells was under 200 nM; on BaF3_HER2YVMA cells, under 200 nM; at BaF3_EGFRWT cells, 1500 to 5000 nM.

Turning to `Cc1cc(Nc2ncnn3ccc(C4CN(C(=O)/C=C/CN(C)C)C4)c23)ccc1Oc1ccn2ccnc2c1` [Example 157, (E)-4-(dimethylamino)-1-(3-(4-((4-(imidazo[1,2-a]pyridin-7-yloxy)-3-methylphenyl)amino)pyrrolo[2,1-f][1,2,4]triazin-5-yl)azetidin-1-yl)but-2-en-1-one], the GI50 on BaF3_HER2WT cells was under 200 nM; at BaF3_HER2YVMA cells, under 200 nM; at BaF3_EGFRWT cells it was 1500 to 5000 nM.

Take `Cc1cc(Nc2ncnn3ccc(C4CN(C(=O)/C=C/CN(C)C)C4)c23)ccc1Oc1cc2ncnn2cn1` [Example 158, (E)-1-(3-(4-((4-([1,2,4]triazolo[1,5-c]pyrimidin-7-yloxy)-3-methylphenyl)amino)pyrrolo[2,1-f][1,2,4]triazin-5-yl)azetidin-1-yl)-4-(dimethylamino)but-2-en-1-one]: the GI50 at BaF3_HER2WT cells was under 200 nM; at BaF3_HER2YVMA cells, under 200 nM; at BaF3_EGFRWT cells, 500 to 1500 nM.

With `Cc1cc(Nc2ncnn3ccc(C4CN(C(=O)/C=C/C56CCCN5CCC6)C4)c23)ccc1Oc1ccn2ncnc2c1` [Example 159, (E)-1-(3-(4-((4-([1,2,4]triazolo[1,5-a]pyridin-7-yloxy)-3-methylphenyl)amino)pyrrolo[2,1-f][1,2,4]triazin-5-yl)azetidin-1-yl)-3-(tetrahydro-1H-pyrrolizin-7a(5H)-yl)prop-2-en-1-one], the figures for the GI50 on BaF3_HER2WT cells, at BaF3_HER2YVMA cells and on BaF3_EGFRWT cells were under 200 nM, under 200 nM and 1500 to 5000 nM, respectively.

For the molecule `Cc1cc(Nc2ncnn3ccc(C4CN(C(=O)/C=C\C56CCCN5CCC6)C4)c23)ccc1Oc1ccn2ncnc2c1` [Example 160, (Z)-1-(3-(4-((4-([1,2,4]triazolo[1,5-a]pyridin-7-yloxy)-3-methylphenyl)amino)pyrrolo[2,1-f][1,2,4]triazin-5-yl)azetidin-1-yl)-3-(tetrahydro-1H-pyrrolizin-7a(5H)-yl)prop-2-en-1-one], the figures for the GI50 on BaF3_HER2WT cells, at BaF3_HER2YVMA cells and on BaF3_EGFRWT cells were under 200 nM, under 200 nM and 1500 to 5000 nM, respectively.

As for `Cc1cc(Nc2ncnn3ccc(C4CN(C(=O)/C=C/CN5CC(F)C5)C4)c23)ccc1Oc1ccc2c(c1)ncn2C` [Example 161, (E)-4-(3-fluoroazetidin-1-yl)-1-(3-(4-((3-methyl-4-((1-methyl-1H-benzo[d]imidazol-5-yl)oxy)phenyl)amino)pyrrolo[2,1-f][1,2,4]triazin-5-yl)azetidin-1-yl)but-2-en-1-one], the values for the GI50 at BaF3_HER2WT cells, on BaF3_HER2YVMA cells and at BaF3_EGFRWT cells were under 200 nM, under 200 nM and 1500 to 5000 nM, respectively.

For the molecule `Cc1cc(Nc2ncnn3ccc(C4CCN(C(=O)/C=C/CN5CC(F)C5)CC4)c23)ccc1Oc1ccc2c(c1)ncn2C` [Example 162, (E)-4-(3-fluoroazetidin-1-yl)-1-(4-(4-((3-methyl-4-((1-methyl-1H-benzo[d]imidazol-5-yl)oxy)phenyl)amino)pyrrolo[2,1-f][1,2,4]triazin-5-yl)piperidin-1-yl)but-2-en-1-one], the GI50 lay within 200 to 500 nM at BaF3_HER2WT cells, 500 to 1500 nM at BaF3_HER2YVMA cells and 1500 to 5000 nM at BaF3_EGFRWT cells.

As to `Cc1cc(Nc2ncnn3ccc(C4CCN(C(=O)/C=C/CN5CC(F)C5)CC4)c23)ccc1Oc1ccn2ncnc2c1` [Example 163, (E)-1-(4-(4-((4-([1,2,4]triazolo[1,5-a]pyridin-7-yloxy)-3-methylphenyl)amino)pyrrolo[2,1-f][1,2,4]triazin-5-yl)piperidin-1-yl)-4-(3-fluoroazetidin-1-yl)but-2-en-1-one], the figures for the GI50 at BaF3_HER2WT cells, on BaF3_HER2YVMA cells and at BaF3_EGFRWT cells were under 200 nM, under 200 nM and 1500 to 5000 nM, respectively.

Take `Cc1cc(Nc2ncnn3ccc(C4CCN(C(=O)/C=C/CN5CCC(F)C5)CC4)c23)ccc1Oc1ccn2ncnc2c1` (stereo not drawn) [Example 164, (E)-1-(4-(4-((4-([1,2,4]triazolo[1,5-a]pyridin-7-yloxy)-3-methylphenyl)amino)pyrrolo[2,1-f][1,2,4]triazin-5-yl)piperidin-1-yl)-4-(3-fluoropyrrolidin-1-yl)but-2-en-1-one]: the GI50 on BaF3_HER2WT cells is under 200 nM; on BaF3_HER2YVMA cells, under 200 nM; at BaF3_EGFRWT cells, 1500 to 5000 nM.

Take `CO[C@H]1CN(C/C=C/C(=O)N2CC(c3ccn4ncnc(Nc5ccc(Oc6ccc7c(c6)ncn7C)c(C)c5)c34)C2)C[C@H]1OC` [Example 165, (E)-4-((3R,4S)-3,4-dimethoxypyrrolidin-1-yl)-1-(3-(4-((3-methyl-4-((1-methyl-1H-benzo[d]imidazol-5-yl)oxy)phenyl)amino)pyrrolo[2,1-f][1,2,4]triazin-5-yl)azetidin-1-yl)but-2-en-1-one]: the GI50 at BaF3_HER2WT cells was under 200 nM; at BaF3_HER2YVMA cells, under 200 nM; on BaF3_EGFRWT cells it was 1500 to 5000 nM.

The record behind these values is patent US20240132521A1, “COMPOUNDS AND METHODS FOR MODULATING HER2” (Iambic Therapeutics, Inc., priority 2022, published 2024).
